Measurements published in patent US10590128B2, “6,7,8,9-tetrahydro-5H-pyrido[2,3-d]azepine dopamine D3 ligands” (Pfizer Inc., priority 2016, dated 2020).

Columns and labels:
[1] = target: human dopamine D2 receptor (hD2R) (Homo sapiens, UniProt P14416); assay: Human D2 receptor binding assay ([^3H]-Spiperone); conditions: CHO cells expressing hD2R, geometric mean of 2-5 determinations unless marked b (single determination)
Procedure: (§1) Human D2 Receptor and Human D3 Receptor Binding Assays:
(§2) These determined ligand and tissue concentrations were utilized in time course studies to determine linearity and equilibrium conditions for binding. […] The hD2R assay buffer contains 50 mM Tris (pH 7.4 @ 37° C.), 100 mM NaCl and 1 mM MgCl2. The hD3R assay buffer consists of 50 mM Tris (pH 7.4 at 37° C.), 120 mM NaCl, 5 mM MgCl2, 5 mM KCl and 2 mM CaCl2. Competitive binding experiments were initiated by the addition of 200 μL of the respective cell homogenate to 96-well plates containing […] test drugs (10 concentrations using ½ log dilutions) and 50 μL of ^3H-radioligand for a final volume of 250 μL. Non-specific binding was determined by radioligand binding in the presence of a saturating concentration of Haldol (10 μM). After the 20 minute incubation at 37° C., assay samples were rapidly filtered through Unifilter-96 GF/B PEI-coated filter plates and rinsed with ice-cold 50 mM Tris buffer (pH 7.4 at 4° C.). […] The IC50 value (concentration at which 50% inhibition of specific binding occurs) was calculated by linear regression of the concentration-response data in ActivityBase. Ki values were then calculated according to the Cheng-Prusoff equation:
(§3) [formula] where [L]=concentration of free radioligand and Kd=dissociation constant of radioligand for D3 receptor or D2 receptor.

[2] = target: human dopamine D3 receptor (hD3R) (Homo sapiens, UniProt P35462); assay: Human D3 receptor binding assay ([^3H]-7-OH-DPAT); conditions: CHO cells expressing hD3R, geometric mean of 2-5 determinations unless marked b (single determination), read-out: hD3 in CHO cells Ki
Sequence of human dopamine D3 receptor (hD3R) (P35462 whole entry): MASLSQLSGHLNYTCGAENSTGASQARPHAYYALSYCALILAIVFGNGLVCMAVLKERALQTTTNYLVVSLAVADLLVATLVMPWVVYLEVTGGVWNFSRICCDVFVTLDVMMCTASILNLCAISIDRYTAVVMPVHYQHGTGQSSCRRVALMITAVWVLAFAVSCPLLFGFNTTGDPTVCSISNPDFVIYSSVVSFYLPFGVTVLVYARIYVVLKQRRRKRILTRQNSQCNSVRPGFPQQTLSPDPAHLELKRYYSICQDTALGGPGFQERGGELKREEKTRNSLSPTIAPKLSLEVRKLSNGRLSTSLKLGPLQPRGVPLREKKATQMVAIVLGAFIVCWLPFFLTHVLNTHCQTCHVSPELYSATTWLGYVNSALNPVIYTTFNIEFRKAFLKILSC
Procedure: as §1, §2, §3

Sequence of human dopamine D2 receptor (hD2R) (P14416 whole entry): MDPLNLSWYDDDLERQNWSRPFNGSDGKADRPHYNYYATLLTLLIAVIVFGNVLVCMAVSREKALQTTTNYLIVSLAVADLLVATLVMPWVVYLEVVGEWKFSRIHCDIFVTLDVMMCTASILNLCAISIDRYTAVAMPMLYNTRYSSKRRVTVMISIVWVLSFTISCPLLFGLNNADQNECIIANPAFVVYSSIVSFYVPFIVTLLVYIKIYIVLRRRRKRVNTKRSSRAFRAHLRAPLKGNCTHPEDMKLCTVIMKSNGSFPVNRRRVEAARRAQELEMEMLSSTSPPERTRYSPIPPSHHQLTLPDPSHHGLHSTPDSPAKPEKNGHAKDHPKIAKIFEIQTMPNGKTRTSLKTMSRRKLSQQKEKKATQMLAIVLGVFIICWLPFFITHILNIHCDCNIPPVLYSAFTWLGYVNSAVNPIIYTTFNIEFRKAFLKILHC

Ki [1]	Ki [2]	SMILES
134 nM	2.59 nM	COc1nc2c(cc1NS(=O)(=O)c1ccc(C3CC(F)(F)CCO3)cc1)CCN(C)CC2 (racemic) [Example 40, 4-(4,4-difluorotetrahydro-2H-pyran-2-yl)-N-(2-methoxy-7-methyl-6,7,8,9-tetrahydro-5H-pyrido[2,3-d]azepin-3-yl)benzenesulfonamide]
294 nM	2 nM	CCN1CCc2cc(NS(=O)(=O)c3ccc(C4CCCCO4)cc3)c(OC)nc2CC1 (racemic) [Example 70, N-(7-ethyl-2-methoxy-6,7,8,9-tetrahydro-5H-pyrido[2,3-d]azepin-3-yl)-4-(tetrahydro-2H-pyran-2-yl)benzenesulfonamide]
549 nM	4.52 nM	COc1nc2c(cc1NS(=O)(=O)c1ccc(C3CCCOC3)cc1)CCN(C)CC2 (racemic) [Example 77, N-(2-methoxy-7-methyl-6,7,8,9-tetrahydro-5H-pyrido[2,3-d]azepin-3-yl)-4-(tetrahydro-2H-pyran-3-yl)benzenesulfonamide]
561 nM	1.95 nM	COc1nc2c(cc1NS(=O)(=O)c1ccc(C3(F)CCC(OC)CC3)cc1)CCN(C)CC2 (single isomer, unassigned) [Example 39, 4-(cis-1-fluoro-4-methoxycyclohexyl)-N-(2-methoxy-7-methyl-6,7,8,9-tetrahydro-5H-pyrido[2,3-d]azepin-3-yl)benzenesulfonamide]
177 nM	2.31 nM	COc1nc2c(cc1NS(=O)(=O)c1ccc(C3CC(F)(F)CCO3)cc1)CCN(C)CC2 (single isomer, unassigned) [Example 41]
402 nM	5.91 nM	COc1nc2c(cc1NS(=O)(=O)c1ccc(C3CC(F)(F)CCO3)cc1)CCN(C)CC2 (single isomer, unassigned) [Example 42]
1040 nM	4.41 nM	CCN1CCc2cc(NS(=O)(=O)c3ccc(C4CCCCO4)cc3)c(OC)nc2CC1 (single isomer, unassigned) [Example 73]
202 nM	2.58 nM	CCN1CCc2cc(NS(=O)(=O)c3ccc(C4CCCCO4)cc3)c(OC)nc2CC1 (single isomer, unassigned) [Example 74]
436 nM	4.69 nM	COc1nc2c(cc1NS(=O)(=O)c1ccc(C3CCCOC3)cc1)CCN(C)CC2 (single isomer, unassigned) [Example 83]
503 nM	4.58 nM	COc1nc2c(cc1NS(=O)(=O)c1ccc(C3CCCOC3)cc1)CCN(C)CC2 (single isomer, unassigned) [Example 84]
303 nM	3.24 nM	COc1nc2c(cc1NS(=O)(=O)c1ccc(C3CCOC(C)C3)cc1)CCN(C)CC2 (single isomer, unassigned) [Example 85]
1390 nM	35.2 nM	COc1nc2c(cc1NS(=O)(=O)c1ccc(C3CCOC(C)(C)C3)cc1)CCN(C)CC2 (single isomer, unassigned) [Example 86]
276 nM	3.61 nM	COc1nc2c(cc1NS(=O)(=O)c1ccc(C3CCOC(C)(C)C3)cc1)CCN(C)CC2 (single isomer, unassigned) [Example 87]
651 nM	6.84 nM	COc1nc2c(cc1NS(=O)(=O)c1ccc(C3CCOC(C)C3)cc1)CCN(C)CC2 (single isomer, unassigned) [Example 88]
366 nM	2.03 nM	COc1nc2c(cc1NS(=O)(=O)c1ccc(C3(F)CCC(OC)CC3)cc1)CCN(C)CC2 (single isomer, unassigned) [Example 93, 4-(trans-1-fluoro-4-methoxycyclohexyl)-N-(2-methoxy-7-methyl-6,7,8,9-tetrahydro-5H-pyrido[2,3-d]azepin-3-yl)benzenesulfonamide]
727 nM	2.71 nM	CCN1CCc2cc(NS(=O)(=O)c3ccc(C4(F)CCC(OC)CC4)cc3)c(OC)nc2CC1 (single isomer, unassigned) [Example 94, N-(7-ethyl-2-methoxy-6,7,8,9-tetrahydro-5H-pyrido[2,3-d]azepin-3-yl)-4-(1-fluoro-4-methoxycyclohexyl)benzenesulfonamide]

Ki [1]	Ki [2]	SMILES
320 nM	4.31 nM	COc1nc2c(cc1NS(=O)(=O)c1ccc(C3CC(F)CCO3)cc1)CCN(C)CC2 (single isomer, unassigned) [Example 106, 4-(4-fluorotetrahydro-2H-pyran-2-yl)-N-(2-methoxy-7-methyl-6,7,8,9-tetrahydro-5H-pyrido[2,3-d]azepin-3-yl)benzenesulfonamide]
1930 nM	15.1 nM	COc1nc2c(cc1NS(=O)(=O)c1ccc(C3CC(F)CCO3)cc1)CCN(C)CC2 (single isomer, unassigned; diastereomer-1) [Example 108, 4-(4-fluorotetrahydro-2H-pyran-2-yl)-N-(2-methoxy-7-methyl-6,7,8,9-tetrahydro-5H-pyrido[2,3-d]azepin-3-yl)benzenesulfonamide, diastereomer-1]
208 nM	3.16 nM	COc1nc2c(cc1NS(=O)(=O)c1ccc(C3CC(F)CCO3)cc1)CCN(C)CC2 (single isomer, unassigned; diastereomer-2) [Example 109, 4-(4-fluorotetrahydro-2H-pyran-2-yl)-N-(2-methoxy-7-methyl-6,7,8,9-tetrahydro-5H-pyrido[2,3-d]azepin-3-yl)benzenesulfonamide, diastereomer-2]
38.8 nM	1.75 nM	COc1nc2c(cc1NS(=O)(=O)c1ccc(C3CCCCC3)nc1)CCN(C)CC2 [Example 1, 6-Cyclohexyl-N-(2-methoxy-7-methyl-6,7,8,9-tetrahydro-5H-pyrido[2,3-d]azepin-3-yl)pyridine-3-sulfonamide]
76 nM	0.859 nM	CCN1CCc2cc(NS(=O)(=O)c3ccc(OC4CCCC4)nc3)c(OC)nc2CC1 [Example 2, 6-(Cyclopentyloxy)-N-(7-ethyl-2-methoxy-6,7,8,9-tetrahydro-5H-pyrido[2,3-d]azepin-3-yl)pyridine-3-sulfonamide]
85.9 nM	1.56 nM	COc1nc2c(cc1NS(=O)(=O)c1ccc([C@H]3C[C@H](OCCF)C3)cc1)CCN(C)CC2 [Example 3, 4-[trans-3-(2-Fluoroethoxy)cyclobutyl]-N-(2-methoxy-7-methyl-6,7,8,9-tetrahydro-5H-pyrido[2,3-d]azepin-3-yl)benzenesulfonamide]
104 nM	1.53 nM	COc1nc2c(cc1NS(=O)(=O)c1ccc(C3CCOCC3)cc1)CCN(C)CC2 [Example 4, N-(2-Methoxy-7-methyl-6,7,8,9-tetrahydro-5H-pyrido[2,3-d]azepin-3-yl)-4-(tetrahydro-2H-pyran-4-yl)benzenesulfonamide]
333 nM	3.72 nM	COc1nc2c(cc1NS(=O)(=O)c1ccc(C)cc1)CCN(C)CC2 [Example 5, N-(2-Methoxy-7-methyl-6,7,8,9-tetrahydro-5H-pyrido[2,3-d]azepin-3-yl)-4-methylbenzenesulfonamide]
54.6 nM	0.866 nM	COc1nc2c(cc1NS(=O)(=O)c1ccc(C3CCCCO3)cc1)CCN(C)CC2 (stereo not shown) [Example 6, N-(2-Methoxy-7-methyl-6,7,8,9-tetrahydro-5H-pyrido[2,3-d]azepin-3-yl)-4-(tetrahydro-2H-pyran-2-yl)benzenesulfonamide]
65.5 nM	1.39 nM	COc1nc2c(cc1NS(=O)(=O)c1ccc([C@H]3CCCCO3)cc1)CCN(C)CC2 [Example 7, N-(2-Methoxy-7-methyl-6,7,8,9-tetrahydro-5H-pyrido[2,3-d]azepin-3-yl)-4-[(2R)-tetrahydro-2H-pyran-2-yl]benzenesulfonamide]
180 nM	2.09 nM	COc1nc2c(cc1NS(=O)(=O)c1ccc([C@@H]3CCCCO3)cc1)CCN(C)CC2 [Example 8, N-(2-Methoxy-7-methyl-6,7,8,9-tetrahydro-5H-pyrido[2,3-d]azepin-3-yl)-4-[(2S)-tetrahydro-2H-pyran-2-yl]benzenesulfonamide]
1270 nM	7.68 nM	COc1nc2c(cc1NS(=O)(=O)c1ccc([C@H]3CCCCO3)cc1)CCNCC2 [Example 9, N-(2-Methoxy-6,7,8,9-tetrahydro-5H-pyrido[2,3-d]azepin-3-yl)-4-[(2R)-tetrahydro-2H-pyran-2-yl]benzenesulfonamide]
99 nM	1.16 nM	COc1nc2c(cc1NS(=O)(=O)c1ccc([C@]3(F)C[C@H](OC)C3)cc1)CCN(C)CC2 [Example 10, 4-(trans-1-Fluoro-3-methoxycyclobutyl)-N-(2-methoxy-7-methyl-6,7,8,9-tetrahydro-5H-pyrido[2,3-d]azepin-3-yl)benzenesulfonamide]
106 nM	3.31 nM	COc1nc2c(cc1NS(=O)(=O)c1ccc(C3(F)CCCC3)nc1)CCN(C)CC2 [Example 11, 6-(1-fluorocyclopentyl)-N-(2-methoxy-7-methyl-6,7,8,9-tetrahydro-5H-pyrido[2,3-d]azepin-3-yl)pyridine-3-sulfonamide]
–	3.68 nM	COc1nc2c(cc1NS(=O)(=O)c1ccc(C3COC3)cc1)CCN(C)CC2 [Example 33, N-(2-methoxy-7-methyl-6,7,8,9-tetrahydro-5H-pyrido[2,3-d]azepin-3-yl)-4-(oxetan-3-yl)benzenesulfonamide]
